Data published in paper PMC11367099 (Heliyon, 2024).

How the values were obtained:
Assay in all cases: Fluorescein-AMP
Type in all cases: biochemical
[1] = target: PDE5A (Homo sapiens, UniProt O76074)
[2] = target: PDE3A (Homo sapiens, UniProt Q14432)
[3] = target: PDE10A2 (Homo sapiens, UniProt Q9Y233)
[4] = target: PDE8A1 (Homo sapiens, UniProt O60658)
PDE8A1, sequence (O60658 whole entry): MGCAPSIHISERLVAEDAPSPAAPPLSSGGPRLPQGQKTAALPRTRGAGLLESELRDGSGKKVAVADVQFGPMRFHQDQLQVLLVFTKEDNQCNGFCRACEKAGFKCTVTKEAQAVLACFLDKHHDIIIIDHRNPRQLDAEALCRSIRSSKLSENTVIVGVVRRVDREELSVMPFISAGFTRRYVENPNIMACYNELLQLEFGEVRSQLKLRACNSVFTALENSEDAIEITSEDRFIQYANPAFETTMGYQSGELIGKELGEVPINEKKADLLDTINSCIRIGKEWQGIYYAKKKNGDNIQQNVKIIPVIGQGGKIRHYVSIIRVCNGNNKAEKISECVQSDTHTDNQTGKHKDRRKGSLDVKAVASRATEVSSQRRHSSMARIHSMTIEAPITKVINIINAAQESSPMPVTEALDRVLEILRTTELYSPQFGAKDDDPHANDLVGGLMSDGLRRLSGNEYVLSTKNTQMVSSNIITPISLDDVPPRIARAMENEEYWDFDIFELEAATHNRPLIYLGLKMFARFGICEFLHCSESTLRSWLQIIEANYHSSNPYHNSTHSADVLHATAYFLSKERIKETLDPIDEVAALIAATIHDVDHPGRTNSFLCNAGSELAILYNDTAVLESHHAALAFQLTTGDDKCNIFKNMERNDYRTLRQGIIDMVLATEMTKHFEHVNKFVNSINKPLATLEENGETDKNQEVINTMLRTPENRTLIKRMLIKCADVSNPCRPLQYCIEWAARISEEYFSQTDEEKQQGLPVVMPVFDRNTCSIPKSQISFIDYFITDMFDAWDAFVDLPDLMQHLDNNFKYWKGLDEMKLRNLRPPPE

PDE10A2, sequence (Q9Y233 267-1055): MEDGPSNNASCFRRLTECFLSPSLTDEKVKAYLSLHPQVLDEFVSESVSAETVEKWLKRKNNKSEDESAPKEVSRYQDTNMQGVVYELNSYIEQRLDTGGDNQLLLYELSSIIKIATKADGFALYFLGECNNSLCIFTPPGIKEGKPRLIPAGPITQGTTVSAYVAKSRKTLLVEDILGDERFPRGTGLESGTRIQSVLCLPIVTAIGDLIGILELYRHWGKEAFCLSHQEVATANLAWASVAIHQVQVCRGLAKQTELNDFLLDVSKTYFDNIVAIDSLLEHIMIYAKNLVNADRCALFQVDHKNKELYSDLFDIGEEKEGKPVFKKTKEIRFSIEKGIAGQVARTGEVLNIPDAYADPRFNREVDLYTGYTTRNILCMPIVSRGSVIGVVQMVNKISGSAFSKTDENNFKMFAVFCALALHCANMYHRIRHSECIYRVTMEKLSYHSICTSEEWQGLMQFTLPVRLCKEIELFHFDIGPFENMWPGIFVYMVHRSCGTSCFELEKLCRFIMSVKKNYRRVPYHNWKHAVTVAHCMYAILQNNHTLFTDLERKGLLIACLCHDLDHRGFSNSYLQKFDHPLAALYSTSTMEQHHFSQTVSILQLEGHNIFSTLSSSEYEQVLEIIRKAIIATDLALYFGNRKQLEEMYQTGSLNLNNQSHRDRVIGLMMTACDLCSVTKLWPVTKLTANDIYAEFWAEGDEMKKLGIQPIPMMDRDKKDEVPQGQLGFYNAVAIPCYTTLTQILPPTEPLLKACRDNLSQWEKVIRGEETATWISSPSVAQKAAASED
PDE3A, sequence (Q14432 whole entry): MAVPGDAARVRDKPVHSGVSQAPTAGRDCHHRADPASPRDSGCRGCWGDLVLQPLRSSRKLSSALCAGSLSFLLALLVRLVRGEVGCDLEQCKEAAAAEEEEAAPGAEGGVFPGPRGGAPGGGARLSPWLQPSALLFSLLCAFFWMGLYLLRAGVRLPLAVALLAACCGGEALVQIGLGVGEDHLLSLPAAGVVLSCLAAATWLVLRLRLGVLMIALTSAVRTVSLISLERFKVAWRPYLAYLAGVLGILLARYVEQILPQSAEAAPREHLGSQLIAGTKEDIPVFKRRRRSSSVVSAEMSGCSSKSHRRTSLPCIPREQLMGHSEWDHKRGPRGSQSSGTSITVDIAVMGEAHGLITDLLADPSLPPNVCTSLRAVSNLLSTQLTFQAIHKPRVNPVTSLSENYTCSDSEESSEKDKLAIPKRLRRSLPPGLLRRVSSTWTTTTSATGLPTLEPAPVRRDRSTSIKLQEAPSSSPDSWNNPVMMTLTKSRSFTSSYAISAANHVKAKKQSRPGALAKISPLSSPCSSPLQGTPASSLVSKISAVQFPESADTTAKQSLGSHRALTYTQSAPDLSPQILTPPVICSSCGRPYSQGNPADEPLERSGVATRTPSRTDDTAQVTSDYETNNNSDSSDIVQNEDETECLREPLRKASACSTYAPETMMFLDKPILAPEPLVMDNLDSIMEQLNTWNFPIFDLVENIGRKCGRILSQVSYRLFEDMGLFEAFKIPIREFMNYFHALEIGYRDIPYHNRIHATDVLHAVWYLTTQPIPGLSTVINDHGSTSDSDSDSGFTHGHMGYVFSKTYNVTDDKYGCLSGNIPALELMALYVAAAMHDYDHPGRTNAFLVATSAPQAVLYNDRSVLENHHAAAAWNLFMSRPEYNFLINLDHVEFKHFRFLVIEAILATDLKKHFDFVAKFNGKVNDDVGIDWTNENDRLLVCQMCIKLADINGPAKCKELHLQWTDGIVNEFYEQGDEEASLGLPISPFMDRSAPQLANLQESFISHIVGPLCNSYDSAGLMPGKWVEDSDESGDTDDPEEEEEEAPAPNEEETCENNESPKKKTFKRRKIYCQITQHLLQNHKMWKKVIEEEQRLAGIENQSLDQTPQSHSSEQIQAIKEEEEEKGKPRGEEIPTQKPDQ

IC50 [1]: 6.54 µM
IC50 [2]: 5.19 µM
IC50 [3]: 9.99 µM
IC50 [4]: 26.3 µM
SMILES: COc1cc(-c2cc(=O)c3c(O)c(OC)c(O)c(OC)c3o2)ccc1O [Sudachitin]
